Ki and Ratio Ki data for 12 compounds are collected here from ChEMBL document CHEMBL2440099, “N-Alkyl dien- and trienamides from the roots of Otanthus maritimus with binding affinity for opioid and cannabinoid receptors” (Bioorg Med Chem, 2013).

In assay [1] the target is Mu-type opioid receptor (Mus musculus, UniProt P42866). The assay is described as follows: Displacement of [3H]DAMGO from mu opioid receptor in CD1 mouse brain membranes after 1 hr by liquid scintillation counting. It is filed as cell membranes, Membrane. For orientation: In a radioligand displacement assay an active substance lowers the binding of a labelled ligand.
The species entered for assay [2] is Mus musculus. The assay is described as follows: Selectivity ratio of Ki for delta opioid receptor in CD1 mouse brain membranes to Ki for mu opioid receptor in CD1 mouse brain membranes. Format: cell membranes.
Assay [3] deals with Cannabinoid receptor 2 (Mus musculus, UniProt P47936). The assay is described as follows: Displacement of [3H]-CP-55940 from cannabinoid CB2 receptor in CD1 mouse spleen membranes after 1 hr by liquid scintillation counting. It is filed as cell membranes, Membrane.
Assay [4] has as its target Delta-type opioid receptor (Mus musculus, UniProt P32300). The assay is described as follows: Displacement of [3H]DPDPE from delta opioid receptor in CD1 mouse brain membranes after 1 hr by liquid scintillation counting. Format: cell membranes, Membrane.
In assay [5] the target is Cannabinoid receptor 1 (Mus musculus, UniProt P47746). The assay is described as follows: Displacement of [3H]-CP-55940 from cannabinoid CB1 receptor in CD1 mouse brain membranes after 1 hr by liquid scintillation counting. Format: cell membranes, Membrane.
The species entered for assay [6] is Mus musculus. The assay is described as follows: Selectivity ratio of Ki for cannabinoid CB1 receptor in CD1 mouse brain membranes to Ki for cannabinoid CB2 receptor in CD1 mouse spleen membranes. It is filed as cell membranes.

pKi: −log10 of the molar value. Where only a bound is given, the exact number is not on record here.

Turning to `CCCCCCCCC/C=C/C=C/C(=O)N1CCCCC1`, the pKi in assay [1] was 5.24; in assay [3], 4.62; in assay [4], 5.19; in assay [5], 5.17. Further, the Ratio Ki in assay [2] came to 1.13; in assay [6], 0.28.
`CCCCC/C=C\CC/C=C/C=C/C(=O)N1CCCCC1`: the pKi in assay [1] was 5.13; in assay [3] it was 6.80; in assay [4] it was 5.42; in assay [5] it was 6.10. For the same compound, the Ratio Ki in assay [2] came to 0.51; in assay [6], 5.
In the case of `O=C(/C=C/C=C/C=C/c1cccs1)N1CCCCC1`, the pKi in assay [1] was 4.89; in assay [3], 5.91; in assay [4] it was 5.10; in assay [5], 5.39. The figures for the Ratio Ki in assay [2] and in assay [6] were 0.63 and 3.3, respectively.
Regarding `CC(C)CC(=O)OC/C=C\CCNC(=O)/C=C/C=C/C=C/c1cccs1`, the negative logarithm of the Ki (pKi) is 4.38 in assay [1], 4.99 in assay [3], 4.96 in assay [4] and 5.25 in assay [5]. Further, the Ratio Ki came to 0.27 in assay [2] and 0.55 in assay [6].
Consider `CCCCC/C=C\CC/C=C/C=C/C(=O)NCC(C)C`, for which the pKi in assay [1] is 5.12; in assay [3], 6.26; in assay [4], 5.11; in assay [5], 5.92. In addition, the results for the Ratio Ki in assay [2] and in assay [6] were 1.03 and 2.18, respectively.
Turning to `C=CC1OC1/C=C/C#CC#CC#CC` (centres undefined), the pKi in assay [1], in assay [3], in assay [4] and in assay [5] was less than 4.30 each time.
In the case of `O=C(/C=C/C=C/C=C/c1cccs1)N1C=CCCC1`, the pKi in assay [1] is 4.54; in assay [3], 4.87; in assay [4], 4.94; in assay [5], less than 4.30. For the same compound, the Ratio Ki in assay [2] came out at 0.4.
Regarding `CCCCCCCCC/C=C/C=C/C(=O)NCC(C)C`, the negative logarithm of the Ki (pKi) in assay [1] is 4.29; in assay [3], 5.93; in assay [4], 4.65; in assay [5], 5.85. The Ratio Ki was 0.44 in assay [2] and 1.2 in assay [6].
Turning to `COc1cc([C@@H]2Oc3c(OC)cc(/C=C/C=O)cc3[C@H]2COC(=O)CC(C)C)ccc1O`, the pKi in assay [1] is 5.05; in assay [3] it was 5.38; in assay [4], 5.42; in assay [5], 5.57. Further, the Ratio Ki in assay [2] was 0.42; in assay [6], 0.64.
Regarding `CC(C)CNC(=O)/C=C/C=C/C=C/c1cccs1`, the negative-log Ki (pKi) was 4.28 in assay [1], 5.08 in assay [3], 4.59 in assay [4] and 5.06 in assay [5]. For the same compound, the Ratio Ki in assay [2] was 0.49; in assay [6] it was 1.07.
As to `CCCCCCC/C=C/C=C/C(=O)NCC(C)C`, the pKi in assay [1] is 5.09; in assay [3], 6.05; in assay [4], 4.37; in assay [5] it was 5.59. Also, the Ratio Ki in assay [2] was 5.24; in assay [6], 2.89.
`CC(C)CCNC(=O)/C=C/C=C/C=C/c1cccs1`: the pKi in assay [1] was 5.09; in assay [3], 5.30; in assay [4], 4.58; in assay [5], 5.66. In addition, the results for the Ratio Ki in assay [2] and in assay [6] were 3.27 and 0.44, respectively.

Usually pKi stands for −log10 of the Ki, conventionally taken in molar units.
